Results on 14 molecules are retold here after patent US20230257364A1, “PYRIDAZINONE-BASED COMPOUNDS AS AXL, C-MET, AND MER INHIBITORS AND METHODS OF USE THEREOF” (CMG Pharmaceutical Co., Ltd., priority 2022, published 2023).

For orientation: IC50 means the concentration that inhibits the measured activity by half.

Format in all cases: biochemical
The target of assay [1] is C-MET (Homo sapiens, UniProt P08581). The experiment in a line: Enzymatic kinase assay (ADP-GLO), C-MET. On the procedure:
(§1) This example illustrates an enzymatic assay to determine the inhibitory activity of exemplary compounds of Formula (I) in an aspect of the invention.
All the kinase reactions were performed in 5 μL using tyrosine kinase buffer with 0.2 μg/μL poly (Glu4, Tyr1) substrate, 10 μM ATP, serial dilution of the inhibitor, and incubated at room temperature for 60 min. After the indicated incubation times, 5 μL ADP-GLO™ reagent (Promega, Madison, Wis.) was added to the reactions and the plate was incubated at room temperature for 40 min. […] All 384-well assay plates were read using a GLOMAX™ Discover Microplate Luminometer from Promega (Madison, Wis.). To plot, analyze the data and calculate all kinase reaction biochemical values, both Microsoft Excel and Prism from GraphPad 7 Software (La Jolla, Calif.) were used.
A general note: ADP-Glo first removes unused ATP, then detects ADP through luciferase.

The target in assay [2] is T1, MER (Homo sapiens, UniProt Q12866).
T1 sequence (Q12866 21-999): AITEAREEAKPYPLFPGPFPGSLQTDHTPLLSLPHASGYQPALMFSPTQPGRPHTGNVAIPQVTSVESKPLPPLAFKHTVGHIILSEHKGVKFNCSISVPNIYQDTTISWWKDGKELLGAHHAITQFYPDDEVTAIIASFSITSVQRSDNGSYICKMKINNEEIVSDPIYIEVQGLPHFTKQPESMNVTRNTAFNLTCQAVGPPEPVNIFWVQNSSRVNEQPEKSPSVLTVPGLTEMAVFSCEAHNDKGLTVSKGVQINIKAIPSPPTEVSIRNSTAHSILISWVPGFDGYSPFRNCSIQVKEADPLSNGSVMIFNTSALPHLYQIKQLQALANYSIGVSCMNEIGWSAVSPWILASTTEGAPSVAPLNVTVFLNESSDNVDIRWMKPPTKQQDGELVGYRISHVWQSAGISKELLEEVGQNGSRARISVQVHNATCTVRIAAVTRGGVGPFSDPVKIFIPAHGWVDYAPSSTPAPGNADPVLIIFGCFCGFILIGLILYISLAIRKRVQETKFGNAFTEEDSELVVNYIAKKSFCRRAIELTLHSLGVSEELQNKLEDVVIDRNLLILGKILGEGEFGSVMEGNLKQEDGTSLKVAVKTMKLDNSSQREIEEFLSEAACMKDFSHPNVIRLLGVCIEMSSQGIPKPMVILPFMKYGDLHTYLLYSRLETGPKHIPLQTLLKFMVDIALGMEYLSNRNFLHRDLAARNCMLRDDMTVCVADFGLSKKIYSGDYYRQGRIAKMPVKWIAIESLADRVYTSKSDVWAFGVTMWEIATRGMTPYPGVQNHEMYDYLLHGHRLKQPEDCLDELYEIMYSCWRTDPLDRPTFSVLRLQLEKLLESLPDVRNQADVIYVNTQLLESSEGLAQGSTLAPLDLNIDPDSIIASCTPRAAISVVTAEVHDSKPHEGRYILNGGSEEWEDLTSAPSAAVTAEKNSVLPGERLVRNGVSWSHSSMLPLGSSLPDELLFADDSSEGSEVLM
As to the kind of experiment: Enzymatic kinase assay (ADP-GLO), MER. The conditions noted are these: 10 μM ATP, poly (Glu4, Tyr1) substrate, 60 min room temperature, luminescence. The procedure: as §1
(§2) All the kinase reactions were performed in 5 μL using tyrosine kinase buffer with 0.2 μg/μL poly (Glu4, Tyr1) substrate, 10 μM ATP, serial dilution of the inhibitor, and incubated at room temperature for 60 min. After the indicated incubation times, 5 μL ADP-GLO™ reagent (Promega, Madison, Wis.) was added to the reactions and the plate was incubated at room temperature for 40 min. Then, 10 μL of kinase detection reagent was added and after an incubation time of 40 min, luminescence was recorded and IC50 values were determined (Table 1). All 384-well assay plates were read using a GLOMAX™ Discover Microplate Luminometer from Promega (Madison, Wis.). To plot, analyze the data and calculate all kinase reaction biochemical values, both Microsoft Excel and Prism from GraphPad 7 Software (La Jolla, Calif.) were used.

The target in assay [3] is T2, AXL (Homo sapiens, UniProt P30530).
T2 sequence (P30530 26-894): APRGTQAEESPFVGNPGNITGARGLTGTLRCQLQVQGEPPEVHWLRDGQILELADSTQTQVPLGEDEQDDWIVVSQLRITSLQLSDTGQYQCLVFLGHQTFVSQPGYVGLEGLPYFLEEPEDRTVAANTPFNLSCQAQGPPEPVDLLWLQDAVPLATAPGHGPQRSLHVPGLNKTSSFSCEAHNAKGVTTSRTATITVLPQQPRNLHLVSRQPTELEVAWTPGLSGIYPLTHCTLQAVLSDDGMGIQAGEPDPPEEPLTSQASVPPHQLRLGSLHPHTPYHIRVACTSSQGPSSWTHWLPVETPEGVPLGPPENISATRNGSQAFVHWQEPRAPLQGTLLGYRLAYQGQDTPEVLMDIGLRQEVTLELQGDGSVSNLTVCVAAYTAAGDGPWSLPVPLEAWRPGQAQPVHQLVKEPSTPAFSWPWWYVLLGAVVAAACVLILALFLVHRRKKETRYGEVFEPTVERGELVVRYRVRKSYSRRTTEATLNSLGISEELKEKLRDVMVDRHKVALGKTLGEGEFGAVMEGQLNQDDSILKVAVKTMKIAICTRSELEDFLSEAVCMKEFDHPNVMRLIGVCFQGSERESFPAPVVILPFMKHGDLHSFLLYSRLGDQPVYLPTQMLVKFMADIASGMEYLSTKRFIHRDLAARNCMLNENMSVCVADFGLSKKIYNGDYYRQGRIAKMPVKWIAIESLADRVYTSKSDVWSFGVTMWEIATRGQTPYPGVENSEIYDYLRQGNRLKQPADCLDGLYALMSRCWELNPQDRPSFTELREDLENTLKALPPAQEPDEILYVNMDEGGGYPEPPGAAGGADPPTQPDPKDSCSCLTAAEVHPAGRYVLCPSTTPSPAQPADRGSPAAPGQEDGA
As to the kind of experiment: Enzymatic kinase assay (ADP-GLO), AXL. The settings on record: 10 μM ATP, poly (Glu4, Tyr1) substrate, 60 min room temperature, luminescence. The procedure:
as §1, §2

Where [4] appears, read: 10 μM ATP, poly (Glu4, Tyr1) substrate, 60 min room temperature, luminescence, read-out: Enzymatic assay IC50 (nM) C-MET.

Like-named read-outs stand apart in the source and are kept apart here.

C-MET, sequence (P08581 25-1390): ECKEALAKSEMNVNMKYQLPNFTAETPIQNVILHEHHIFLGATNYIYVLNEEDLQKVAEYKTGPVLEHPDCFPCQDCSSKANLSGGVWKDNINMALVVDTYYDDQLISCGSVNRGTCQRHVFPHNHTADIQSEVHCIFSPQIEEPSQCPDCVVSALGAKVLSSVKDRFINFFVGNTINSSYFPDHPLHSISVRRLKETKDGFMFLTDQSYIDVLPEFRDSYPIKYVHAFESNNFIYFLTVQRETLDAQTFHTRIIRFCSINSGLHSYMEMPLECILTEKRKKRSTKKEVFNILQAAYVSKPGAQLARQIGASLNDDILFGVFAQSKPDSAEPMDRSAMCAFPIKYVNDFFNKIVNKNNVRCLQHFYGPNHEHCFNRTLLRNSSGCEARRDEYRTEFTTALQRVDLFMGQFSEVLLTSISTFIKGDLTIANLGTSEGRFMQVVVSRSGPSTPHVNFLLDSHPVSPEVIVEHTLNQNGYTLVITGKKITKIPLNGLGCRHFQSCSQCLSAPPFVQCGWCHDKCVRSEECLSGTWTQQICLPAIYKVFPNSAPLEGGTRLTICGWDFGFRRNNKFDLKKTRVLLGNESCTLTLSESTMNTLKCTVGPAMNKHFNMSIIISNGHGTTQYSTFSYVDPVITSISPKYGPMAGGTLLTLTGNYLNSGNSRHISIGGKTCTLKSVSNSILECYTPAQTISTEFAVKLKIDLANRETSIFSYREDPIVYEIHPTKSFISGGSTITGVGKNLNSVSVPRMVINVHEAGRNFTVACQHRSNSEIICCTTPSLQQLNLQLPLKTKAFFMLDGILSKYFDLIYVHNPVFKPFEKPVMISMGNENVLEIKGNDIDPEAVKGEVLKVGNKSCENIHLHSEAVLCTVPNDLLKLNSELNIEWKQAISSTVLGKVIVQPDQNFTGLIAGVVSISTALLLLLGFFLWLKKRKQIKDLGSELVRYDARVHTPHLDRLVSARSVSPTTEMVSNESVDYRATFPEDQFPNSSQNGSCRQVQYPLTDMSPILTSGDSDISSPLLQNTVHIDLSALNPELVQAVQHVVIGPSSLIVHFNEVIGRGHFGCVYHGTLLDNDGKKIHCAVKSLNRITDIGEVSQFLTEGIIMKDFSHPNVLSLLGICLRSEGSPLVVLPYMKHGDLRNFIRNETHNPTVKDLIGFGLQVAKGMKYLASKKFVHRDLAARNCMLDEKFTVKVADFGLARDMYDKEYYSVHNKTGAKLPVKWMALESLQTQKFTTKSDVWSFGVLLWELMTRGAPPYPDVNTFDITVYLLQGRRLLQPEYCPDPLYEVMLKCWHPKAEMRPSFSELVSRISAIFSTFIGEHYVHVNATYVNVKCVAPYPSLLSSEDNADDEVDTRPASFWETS

With `Nc1nccc(Oc2ccc(NC(=O)c3ccnn(-c4ccc(F)cc4)c3=O)cc2F)c1/C=C/C(=O)N1CCNCC1` [Example 7, (E)-N-(4-(2-amino-3-(3-oxo-3-(piperazin-1-yl)prop-1-enyl)pyridin-4-yloxy)-3-fluorophenyl)-2-(4-fluorophenyl)-3-oxo-2,3-dihydropyridazine-4-carboxamide], the IC50 in assay [1] (setting [4]), in assay [2] and in assay [3] was less than 1000 nM throughout.

Consider `Nc1nccc(Oc2ccc(NC(=O)c3ccnn(-c4ccc(F)cc4)c3=O)cc2F)c1C#CC(=O)N1CCC(O)CC1` [Example 9, N-(4-(2-amino-3-(3-(4-hydroxypiperidin-1-yl)-3-oxoprop-1-ynyl)pyridin-4-yloxy)-3-fluorophenyl)-2-(4-fluorophenyl)-3-oxo-2,3-dihydropyridazine-4-carboxamide], for which the IC50 in assay [1] (setting [4]) is less than 100 nM; in assay [2], less than 100 nM; in assay [3] it was less than 10 nM.

Regarding `Nc1nccc(Oc2ccc(NC(=O)c3ccnn(-c4ccc(F)cc4)c3=O)cc2F)c1C#CCN1CCNCC1` [Example 6, N-(4-(2-amino-3-(3-(piperazin-1-yl)prop-1-ynyl)pyridin-4-yloxy)-3-fluorophenyl)-2-(4-fluorophenyl)-3-oxo-2,3-dihydropyridazine-4-carboxamide], the 50% inhibitory concentration (IC50) in assay [1] (setting [4]), in assay [2] and in assay [3] was less than 1000 nM each time.

As to `COC1CCN(C(=O)C#Cc2c(Oc3ccc(NC(=O)c4ccnn(-c5ccc(F)cc5)c4=O)cc3F)ccnc2N)CC1` [Example 10, N-(4-(2-amino-3-(3-(4-methoxypiperidin-1-yl)-3-oxoprop-1-ynyl)pyridin-4-yloxy)-3-fluorophenyl)-2-(4-fluorophenyl)-3-oxo-2,3-dihydropyridazine-4-carboxamide], the 50% inhibitory concentration (IC50) in assay [1] (setting [4]) is less than 1000 nM; in assay [2], less than 1000 nM; in assay [3] it was less than 100 nM.

Consider `Nc1nccc(Oc2ccc(NC(=O)c3ccnn(-c4ccc(F)cc4)c3=O)cc2F)c1C#CCN1CCOCC1` [Example 3, N-(4-(2-amino-3-(morpholinoprop-1-ynyl)pyridine-4-yloxy)-3-fluorophenyl)-2-(4-fluorophenyl)-3-oxo-2,3-dihydropyridazine-4-carboxamide], for which the IC50 in assay [1] (setting [4]), in assay [2] and in assay [3] was less than 1000 nM throughout.

On to `N#Cc1c(Oc2ccc(NC(=O)c3ccnn(-c4ccc(F)cc4)c3=O)cc2F)ccnc1N` [Example 5], for which the IC50 in assay [1] (setting [4]) was less than 10 nM; in assay [2], less than 1000 nM; in assay [3], less than 100 nM.

For the molecule `CC(C)(C#Cc1c(Oc2ccc(NC(=O)c3ccnn(-c4ccc(F)cc4)c3=O)cc2F)ccnc1N)N1CCNCC1` [Example 22, N-(4-(2-amino-3-(3-methyl-3-(piperazin-1-yl)but-1-ynyl)pyridin-4-yloxy)-3-fluorophenyl)-2-(4-fluorophenyl)-3-oxo-2,3-dihydropyridazine-4-carboxamide], the figures for the half-maximal inhibitory concentration (IC50) in assay [1] (setting [4]), in assay [2] and in assay [3] were less than 100 nM, less than 100 nM and less than 10 nM, respectively.

Consider `CC(C)(C#Cc1c(Oc2ccc(NC(=O)c3ccnn(-c4ccc(F)cc4)c3=O)cc2F)ccnc1N)N1CCOCC1` [Example 28, N-(4-(2-amino-3-(3-methyl-3-morpholinobut-1-ynl)pyridin-4-yloxy)-3-fluorophenyl)-2-(4-fluorophenyl)-3-oxo-2,3-dihydropyridazine-4-carboxamide], for which the concentration for half-maximal inhibition (IC50) is less than 10 nM in assay [1] (setting [4]), less than 100 nM in assay [2] and less than 10 nM in assay [3].

Consider `Nc1nccc(Oc2ccc(NC(=O)c3ccnn(-c4ccc(F)cc4)c3=O)cc2F)c1C#CC(=O)N1CCNCC1` [Example 13, N-(4-(2-amino-3-(3-oxo-3-(piperazin-1-yl)prop-1-ynyl)pyridin-4-yloxy)-3-fluorophenyl)-2-(4-fluorophenyl)-3-oxo-2,3-dihydropyridazine-4-carboxamide], for which the half-inhibitory concentration (IC50) in assay [1] (setting [4]), in assay [2] and in assay [3] was less than 100 nM each time.

As to `COCCN1CCC(CC#Cc2c(Oc3ccc(NC(=O)c4ccnn(-c5ccc(F)cc5)c4=O)cc3F)ccnc2N)CC1` [Example 31, N-(4-(2-amino-3-(3-(1-(2-methoxyethyl)piperidin-4-yl)prop-1-ynyl)pyridin-4-yloxy)-3-fluorophenyl)-2-(4-fluorophenyl)-3-oxo-2,3-dihydropyridazine-4-carboxamide], the concentration for half-maximal inhibition (IC50) in assay [1] (setting [4]) is less than 10 nM; in assay [2], less than 100 nM; in assay [3] it was less than 100 nM.

As for `Nc1nccc(Oc2ccc(NC(=O)c3ccnn(-c4ccc(F)cc4)c3=O)cc2F)c1-c1ccc(Oc2ccccc2)cc1` [Example 20, N-(4-(2-amino-3-(4-phenoxyphenyl)pyridin-4-yloxy)-3-fluorophenyl)-2-4-(fluorophenyl)-3-oxo-2,3-dihydropyridazine-4-carboxamide], the 50% inhibitory concentration (IC50) is more than 1000 nM in assay [1] (setting [4]), less than 1000 nM in assay [2] and less than 1000 nM in assay [3].

In the case of `Nc1nccc(Oc2ccc(NC(=O)c3ccnn(-c4ccc(F)cc4)c3=O)cc2F)c1C#CC1CCNCC1` [Example 25, N-(4-(2-amino-3-(piperidin-4-ylethynyl)pyridine-4-yloxy)-3-fluorophenyl)-2-(4-fluorophenyl)-3-oxo-2,3-dihydropyridazine-4-carboxamide], the IC50 in assay [1] (setting [4]) is less than 10 nM; in assay [2], more than 1000 nM; in assay [3], less than 10 nM.

As to `Nc1nccc(Oc2ccc(NC(=O)c3ccnn(-c4ccc(F)cc4)c3=O)cc2F)c1C#CCC1CCNCC1` [Example 30, N-(4-(2-amino-3-(3-(piperidin-4-yl)prop-1-ynyl)pyridin-4-yloxy)-3-fluorophenyl)-2-(4-fluorophenyl)-3-oxo-2,3-dihydropyridazine-4-carboxamide], the IC50 in assay [1], in assay [2] and in assay [3] was less than 10 nM throughout.

With `Nc1nccc(Oc2ccc(NC(=O)c3ccnn(-c4ccc(F)cc4)c3=O)cc2F)c1C#CCCN1CCOCC1` [Example 8, N-(4-(2-amino-3-(4-morpholinobut-1-ynyl)pyridin-4-yloxy)-3-fluorophenyl)-2-(4-fluorophenyl)-3-oxo-2,3-dihydropyridazine-4-carboxamide], the half-maximal inhibitory concentration (IC50) in assay [1] (setting [4]) was less than 1000 nM; in assay [2], less than 1000 nM; in assay [3] it was less than 100 nM.
